Measured values reported in ChEMBL document CHEMBL5303304, “EUbOPEN Chemogenomics Library - IncuCyte” (2023).

Experiments:
Type in all cases: toxicity, cell-based
Fibroblast = assay: Incucyte cell viability with human fibroblast; settings: 10 µM, compound concentration 10 uM
U2OS = assay: Incucyte cell viability with U2OS; settings: human, 10 µM, compound concentration 10 uM
HEK-293T = assay: Incucyte cell viability with HEK293T; settings: human, 10 µM, compound concentration 10 uM
Also: unitless GR value; below 1 slowed growth and below 0 cell loss.

| Structure (SMILES) | Growth Rate (Fibroblast; 0 h, replicate number 2) | Growth Rate (Fibroblast; 6 h, replicate number 1) | Growth Rate (Fibroblast; 6 h, replicate number 2) | Growth Rate (Fibroblast; 12 h, replicate number 1) | Growth Rate (Fibroblast; 12 h, replicate number 2) | Growth Rate (Fibroblast; 18 h, replicate number 1) | Growth Rate (Fibroblast; 18 h, replicate number 2) | Growth Rate (Fibroblast; 24 h, replicate number 1) | Growth Rate (Fibroblast; 24 h, replicate number 2) | Growth Rate (U2OS; 12 h, replicate number 1) | Growth Rate (U2OS; 12 h, replicate number 2) | Growth Rate (U2OS; 18 h, replicate number 1) | Growth Rate (U2OS; 18 h, replicate number 2) | Growth Rate (U2OS; 24 h, replicate number 1) | Growth Rate (U2OS; 24 h, replicate number 2) | Growth Rate (HEK-293T; 0 h, replicate number 1) | Growth Rate (HEK-293T; 12 h, replicate number 2) | Growth Rate (HEK-293T; 18 h, replicate number 2) | Growth Rate (U2OS; 0 h, replicate number 1) | Growth Rate (HEK-293T; 0 h, replicate number 2) | other results |
| --- | --- | --- | --- | --- | --- | --- | --- | --- | --- | --- | --- | --- | --- | --- | --- | --- | --- | --- | --- | --- | --- |
| CN1CCN(c2ccc(-n3cc(-c4ccncc4OCC4CCNCC4)cn3)cc2)CC1 | 0.21 | 0.93 | 0.33 | 0.81 | 0.22 | 0.68 | 0.19 | 0.62 | 0.28 | 0.92 | 0.4 | 0.69 | 0.31 | 0.53 | 0.16 | -0.6 | 0.09 | 0.13 |  |  | Growth Rate (Fibroblast; 0 h, replicate number 1): 0.3; Growth Rate (U2OS; 0 h, replicate number 2): 0.97; Growth Rate (U2OS; 6 h, replicate number 2): 0.51; Growth Rate (HEK-293T; 6 h, replicate number 1): -0.15; Growth Rate (HEK-293T; 6 h, replicate number 2): -0.17; Growth Rate (HEK-293T; 12 h, replicate number 1): 0.02; Growth Rate (HEK-293T; 18 h, replicate number 1): 0.14; Growth Rate (HEK-293T; 24 h, replicate number 1): 0.11; Growth Rate (HEK-293T; 24 h, replicate number 2): 0.07 |
| Cc1onc(O)c1CC(N)C(=O)O [(R,S)-AMPA] |  |  | -0.99 | -1 | 0.59 |  |  |  |  |  | 0.82 |  | 0.94 |  | 0.94 |  | 0.69 | 0.64 | -0.22 | 0.65 | Growth Rate (Fibroblast; 0 h, replicate number 1): -0.2; Growth Rate (U2OS; 0 h, replicate number 2): -0.98; Growth Rate (U2OS; 6 h, replicate number 2): 0.78; Growth Rate (HEK-293T; 6 h, replicate number 1): 0.47; Growth Rate (HEK-293T; 6 h, replicate number 2): 0.09; Growth Rate (HEK-293T; 12 h, replicate number 1): 0.21; Growth Rate (HEK-293T; 18 h, replicate number 1): 0.78; Growth Rate (HEK-293T; 24 h, replicate number 1): 0.74 |
| Cc1c[nH]c(-c2cnc(NCCNc3ccc(C#N)cn3)nc2-c2ccc(Cl)cc2Cl)n1 [LADUVIGLUSIB] |  | 0.56 | 0.81 | -0.47 | -0.19 | -0.4 | -0.3 | -0.33 | -0.28 | 0.48 | 0.87 | 0.83 | 0.93 | 0.56 | 0.99 | 0.82 | 0.43 | 0.7 | 0.54 | 0.92 | Growth Rate (U2OS; 6 h, replicate number 1): 0.47; Growth Rate (HEK-293T; 6 h, replicate number 1): 0.35; Growth Rate (HEK-293T; 6 h, replicate number 2): 0.14; Growth Rate (HEK-293T; 12 h, replicate number 1): 0.49; Growth Rate (HEK-293T; 18 h, replicate number 1): 0.58; Growth Rate (HEK-293T; 24 h, replicate number 1): 0.71; Growth Rate (HEK-293T; 24 h, replicate number 2): 0.75 |
| O=C(O)c1ccc(-c2c[nH]c3ncc(-c4ccccc4)cc23)cc1C1CCCC1 [GSK-650394] | -0.45 | 0.36 | -0.95 | -1 | 0.77 | 0.91 |  | 0.38 |  | 0.79 | 0.98 | 0.86 | 0.92 |  | 0.96 | 0.23 |  |  | 0.01 | 0.55 | Growth Rate (U2OS; 6 h, replicate number 1): 0.39 |
| O=C(NCc1ccc(F)cc1)C1CCN(S(=O)(=O)c2cc(Cl)cc(Cl)c2)CC1 | 0.31 | 0.84 |  | 0.58 | 0.3 | 0.84 | 0.46 | 0.76 | 0.67 | 0.86 | 0.98 | 0.9 | 0.98 |  | 0.98 |  |  |  |  | -0.42 | Growth Rate (U2OS; 0 h, replicate number 2): 0.76; Growth Rate (U2OS; 6 h, replicate number 1): 0.81; Growth Rate (U2OS; 6 h, replicate number 2): 0.72; Growth Rate (HEK-293T; 6 h, replicate number 1): 0.66; Growth Rate (HEK-293T; 12 h, replicate number 1): 0.95; Growth Rate (HEK-293T; 18 h, replicate number 1): 0.7; Growth Rate (HEK-293T; 24 h, replicate number 1): 0.78 |
| Cc1cccc([C@H]2CC[C@@H](N3CCN(c4cccnc4)CC3)CC2)c1.O=C(O)C(F)(F)F.O=C(O)C(F)(F)F | -0.88 | -0.37 | -0.32 |  |  |  |  | 0.58 | 0.94 | 1 |  | 0.97 |  | 0.93 |  | 0.98 | 0.66 | 0.73 |  |  | Growth Rate (U2OS; 0 h, replicate number 2): -0.63; Growth Rate (HEK-293T; 6 h, replicate number 2): 0.45; Growth Rate (HEK-293T; 24 h, replicate number 2): 0.79 |
| O=C1Nc2ccc(I)cc2/C1=C/c1cc(Br)c(O)c(Br)c1 |  |  |  |  |  |  |  |  |  |  |  |  |  |  |  | -0.98 | 0.98 | 0.88 | -0.98 | 0.38 | Growth Rate (Fibroblast; 0 h, replicate number 1): -1; Growth Rate (U2OS; 0 h, replicate number 2): 0.76; Growth Rate (HEK-293T; 6 h, replicate number 2): 0.9; Growth Rate (HEK-293T; 24 h, replicate number 2): 0.86 |
| CC(C(=O)Nc1cc(C#N)ccc1CCCC(=O)O)c1ccc(F)c2ccccc12 (stereo not given) | -0.98 |  |  |  |  |  |  |  | 0.93 | 0.72 |  | 0.92 |  | 0.78 |  | 0.5 |  |  | 0 | 0.28 | Growth Rate (U2OS; 6 h, replicate number 1): 0.47 |
| CN(C)CCC[C@@]1(c2ccc(F)cc2)OCc2cc(C#N)ccc21 [ESCITALOPRAM] |  | 0.67 |  |  |  | 0.69 | 0.85 | 0.84 | 0.74 | 1 |  |  |  | 0.9 |  | -0.16 | 0.97 | 0.59 | 0.18 | 0.57 | Growth Rate (Fibroblast; 0 h, replicate number 1): -1; Growth Rate (U2OS; 6 h, replicate number 1): 0.62; Growth Rate (HEK-293T; 12 h, replicate number 1): 0.84; Growth Rate (HEK-293T; 18 h, replicate number 1): 0.56; Growth Rate (HEK-293T; 24 h, replicate number 1): 0.6 |
| O=C(O)CCC/C=C\C[C@@H]1[C@@H](/C=C/[C@@H](O)COc2cccc(C(F)(F)F)c2)[C@H](O)C[C@@H]1O [FLUPROSTENOL] |  | 0.15 | -0.58 | 0.5 | 0.09 | 0.89 | 0.18 | 0.8 | 0.44 |  | 0.91 |  | 0.9 |  | 0.91 | -0.11 |  |  | 0.61 | 0.68 | Growth Rate (U2OS; 6 h, replicate number 1): 0.86; Growth Rate (U2OS; 6 h, replicate number 2): 0.95 |
| Cc1cc2ncnn2cc1Nc1ncc2c(n1)n(C1CCOCC1)c(=O)n2C [AZD-7648] | 0.27 |  |  |  |  |  | 0.83 |  | 0.93 |  |  |  |  | 0.9 |  |  | 0.76 | 0.95 | 0.4 |  | Growth Rate (HEK-293T; 6 h, replicate number 1): 0.34; Growth Rate (HEK-293T; 6 h, replicate number 2): 0.98; Growth Rate (HEK-293T; 12 h, replicate number 1): 0.78; Growth Rate (HEK-293T; 18 h, replicate number 1): 0.87; Growth Rate (HEK-293T; 24 h, replicate number 1): 0.93 |
